Where two headings read alike, the source gives them in different places.
Columns and labels:
[1] = tested on: OPM-2 cells; assay: Cell viability assay (OPM-2 cells), CCK-8; format: cell-based; details: 5% FBS
Protocol: OPM-2 cells were obtained from Deutsche Sammlung von Mikroorganismen and Zellkulturen GmbH (DSMZ). Cells were maintained in the recommended culture medium with 10% FBS at 37° C. and an atmosphere of 5% CO2.
The effect of representative Compounds of the Disclosure on cell viability was determined using Cell Counting Kit-8 (CCK-8) assay (Shanghai Life iLab Bio Technology) according to the manufacturer's instructions. Each tested compound was serially diluted in culture medium, 100 μL of the compound dilution was added into 96-well plates. 100 μL of an OPM-2 cell suspension (20000 cells/well) in culture medium were seeded into the corresponding well of the plate and the cells were incubated at 37° C. in an atmosphere of 5% CO2 for 24 hours. In the next day, 20 μL of CCK-8 solution was added to each well of the plate and incubated for 4 hours.
The plates were read at 450 nm on the microplate spectrophotometer (SpectraMax plus 384, Molecular devices). The readings were normalized to the vehicle cells, and the IC50 was calculated by nonlinear regression analysis using GraphPad Prism 6 software.

[2] = target: T1, Mcl-1 protein (residues 171-323) (Homo sapiens, UniProt Q07820); assay: Inhibition of Mcl-1 by fluorescence polarization (FP) competitive binding assay with FAM-Bid tracer; details: 2 nM FAM-Bid, 20 nM Mcl-1, 30 min
T1 construct: Tag-free Mcl-1 protein (residues 171-323) was used in the FP assay
Protocol: Inhibition of Mcl-1 by Fluorescence Polarization (FP) Assay.
The relative binding potency of representative Compounds of the Disclosure was determined by a fluorescence polarization (FP) assay (Long et al, BMC Biotechnology 13:45 (2013)). The method used a fluorescein labelled peptide (FAM-Bid) which binds to the Mcl-1 protein leading to an increased anisotropy measured in milli-polarization (mP) values using a plate reader. […] Tag-free Mcl-1 protein (residues 171-323) was used in the FP assay (Mady et al, Scientific Reports 8: 10210-10210 (2018); Yang et al, ACS Med. Chem. Lett. 3:308-312 (2012)).
A 10-points serial dilution of each compound was prepared in DMSO and 5 μL solution was transferred into flat bottomed, 96-well back plate (final DMSO concentration 5%). 120 μL of Buffer (PBS, 0.01% BGG (Sigma Cat. #SRE0011), 0.01% Triton X-100), containing the Fluorescein labelled peptide (Final concentration 2 nM) and Mcl-1 protein (final concentration 20 nM) was then added. Assay plates were incubated 30 mins at room temperature with gentle shaking before FP was measured on a Biotek Synergy 1MF reader (Ex. 485 nm, Em. 528 nm, Cut off 510 nm) and mP calculated. The binding of increasing doses of test compounds was expressed as a percentage reduction in mP compared to a window established between 5% DMSO only and 100% inhibition controls (no Mcl-1 protein). 10-points dose response curves were plotted with GraphPad software using Sigmoidal Dose-Response Model and the IC50 values were determined by nonlinear regression fitting of the competition curves. Cell Viability Assay (NCI-H929 cells)

[3] = tested on: NCI-H929 cells; assay: Cell viability assay (NCI-H929 cells), CCK-8; format: cell-based; details: 5% FBS
Protocol: NCI-H929 cells were obtained from American Type Culture Collection (ATCC). Cells were maintained in the recommended culture medium (RPMI 1640) with 10% FBS and 0.05 mM BME at 37° C. and an atmosphere of 5% CO2.
The effect of Compounds on cell viability was determined using Cell Counting Kit-8 (CCK-8) assay according to the manufacturer's instructions. 95 μL of NCI-H929 cell suspension (20000 cells/well) in culture medium were seeded into 96-well plates and cultured 4 hrs. Each tested compound was serially diluted in DMSO, then 5 μL of the compound or DMSO was diluted in 95 μL medium once more. At last, 5 μL of the compound dilution was added to the corresponding well of the cell plate. After the addition of the tested compound, the cells were incubated at 37° C. in an atmosphere of 5% CO2 for 24 hrs. At the end, 10 μL of CCK-8 solution was added to each well of the plate and incubated for 1-4 hours. The plates were read at 450 nm on the microplate reader (BioTek Synergy 1MF). The readings were normalized to the vehicle cells, and the IC50 was calculated by nonlinear regression analysis using GraphPad Prism 6 software. Cell Viability Assay (OPM-2 cells)

[4] = Pharmacokinetic studies in mice (IV and PO); format: in vivo; details: for MRT last: read-out: MRT0-last
Protocol: Administration: Mice in the IV group was dosed at 2 mg/kg (20% PEG 400+10% Cremophor EL+70% PBS 7.4) via tail vein injection (N=9). Mice in the PO group was dosed at 10 mg/kg (20% PEG 400+10% Cremophor EL+70% PBS 7.4) via oral gavage (N=9). All the mice were fasted overnight before dosing and had free access to food 4 hr post dosing.
Sampling: The animal was restrained manually at the designated time points (0.083, 0.25, 0.5, 1, 2, 4, 6, 8 and 24 hr), approximately 110 μL of blood sample was collected via retro-orbital puncture or cardiac puncture for terminal bleeding under the anesthesia with Isoflurane inhalation into K2EDTA tubes. The blood samples were maintained in wet ice first and centrifuged to obtain plasma (2000 g, 4° C., 5 min) within 15 minutes post sampling. All the plasma samples were stored at approximately −70° C. until analysis.

T1 sequence (Q07820 171-323): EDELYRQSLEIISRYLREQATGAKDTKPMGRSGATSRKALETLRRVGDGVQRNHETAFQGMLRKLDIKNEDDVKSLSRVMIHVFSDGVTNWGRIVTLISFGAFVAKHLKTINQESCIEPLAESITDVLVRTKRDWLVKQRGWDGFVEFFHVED

Row | SMILES | IC50 [2] [nM] | IC50 ([3]; Homo sapiens, NCI-H929, 24 h) [nM] | IC50 ([3]; 24 h) [nM] | IC50 ([1]; Homo sapiens, OPM-2, 24 h) [nM] | IC50 ([1]; 24 h) [nM] | also measured
1 | CO[C@H]1C2=C[C@@H](C2)[C@H](C)[C@@H](C)S(=O)(=O)NC(=O)c2ccc3c(c2)N(C[C@@H]2CC[C@H]21)C[C@@]1(CCCc2c1ccc(Cl)c2F)CS3 (single isomer, unassigned) [22 (isomer 1)] | 13 | 700 | – | 567 | – | –
2 | CO[C@H]1C2=C[C@@H](C2)[C@H](C)CS(=O)(=O)NC(=O)c2ccc3c(c2)N(C[C@@H]2CC[C@H]21)C[C@@]1(CCCc2c1ccc(Cl)c2F)CS3 (single isomer, unassigned) [24 (isomer 1)] | 6.4 | 660 | – | 670 | – | –
3 | CO[C@H]1C2=C[C@H](C2)[C@H](C)CS(=O)(=O)NC(=O)c2ccc3c(c2)N(C[C@@H]2CC[C@H]21)C[C@@]1(CCCc2c1ccc(Cl)c2F)CS3 (single isomer, unassigned) [24 (isomer 2)] | 4.8 | 4300 | – | 3300 | – | –
4 | CO[C@H]1C2=CC(C2)[C@H](C)N(C)S(=O)(=O)NC(=O)c2ccc3c(c2)N(C[C@@H]2CC[C@H]21)C[C@@]1(CCCc2cc(Cl)ccc21)CO3 (single isomer, unassigned) [26 (isomer 1)] | 14 | – | 160 | – | 412 | –
5 | CO[C@H]1C2=C[C@H](C2)[C@H](C)N(C[C@@H]2CCCO2)S(=O)(=O)NC(=O)c2ccc3c(c2)N(C[C@@H]2CC[C@H]21)C[C@@]1(CCCc2cc(Cl)ccc21)CO3 (single isomer, unassigned) [30 (isomer 1)] | 6.2 | 2900 | – | 2310 | – | –
6 | CO[C@H]1C2=C[C@H](C2)[C@H](C)N(C[C@H]2CCCO2)S(=O)(=O)NC(=O)c2ccc3c(c2)N(C[C@@H]2CC[C@H]21)C[C@@]1(CCCc2cc(Cl)ccc21)CO3 (single isomer, unassigned) [30 (isomer 2)] | 5.1 | 4700 | – | 4770 | – | –
7 | CO[C@H]1C2=C[C@@H](C2)[C@H](C)N(C[C@@H]2CCCO2)S(=O)(=O)NC(=O)c2ccc3c(c2)N(C[C@@H]2CC[C@H]21)C[C@@]1(CCCc2cc(Cl)ccc21)CO3 (single isomer, unassigned) [30 (isomer 3)] | 14 | 5200 | – | 6100 | – | –
8 | CO[C@H]1/C=C/C[C@H](C)[C@@H](C)S(=O)(=O)NC(=O)c2ccc3c(c2)N(C[C@@H]2CC[C@H]21)C[C@@]1(CCCc2cc(Cl)ccc21)CO3 [AMG-176, reference compound] | – | 138 | – | 335 | – | F ([4]; PO 10 mg/kg vs IV 2 mg/kg): 97.9%; AUC(0-inf) ([4]; mouse, plasma, IV 2 mg/kg): 7450 ng·h/mL; AUC(0-t) ([4]; mouse, plasma, IV 2 mg/kg): 6800 ng·h/mL; clearance ([4]; mouse, plasma, IV 2 mg/kg): 4.5 mL/min/kg; half-life ([4]; mouse, plasma, IV 2 mg/kg): 7.2 h; Cmax ([4]; mouse, plasma, IV 2 mg/kg, read-out: C0/Cmax (C0)): 1550 ng/mL; MRT last ([4]; mouse, plasma, IV 2 mg/kg): 6.3 h; Vd ([4]; mouse, plasma, IV 2 mg/kg, read-out: Vss): 2.3 L/kg; AUC(0-inf) ([4]; mouse, plasma, PO 10 mg/kg): 36500 ng·h/mL; AUC(0-t) ([4]; mouse, plasma, PO 10 mg/kg): 32700 ng·h/mL; Tmax ([4]; mouse, plasma, PO 10 mg/kg): 1 h; half-life ([4]; mouse, plasma, PO 10 mg/kg): 7.4 h; Cmax ([4]; mouse, plasma, PO 10 mg/kg, read-out: C0/Cmax (Cmax)): 2500 ng/mL; MRT last ([4]; mouse, plasma, PO 10 mg/kg): 7.4 h; Vd/F ([4]; mouse, plasma, PO 10 mg/kg, read-out: Vz/F): 2.9 L/kg
9 | CO[C@H]1C2CC(CCS(=O)(=O)NC(=O)c3ccc4c(c3)N(C[C@@H]3CC[C@H]31)C[C@@]1(CCCc3cc(Cl)ccc31)CO4)C2 [compound 2] | – | 6.04 | – | 10 | – | –

More lines, main results first:

Row | IC50 [2] [nM] | IC50 ([3]; Homo sapiens, NCI-H929, 24 h) [nM] | IC50 ([3]; 24 h) [nM] | SMILES | IC50 ([1]; Homo sapiens, OPM-2, 24 h) [nM] | IC50 ([1]; 24 h) [nM] | also measured
10 | 5.1 | 2300 | – | CO[C@@H]1C2=CC(C2)CC(C)S(=O)(=O)NC(=O)c2ccc3c(c2)N(C[C@@H]2CC[C@H]21)C[C@@]1(CCCc2cc(Cl)ccc21)CO3 (mixture of isomers) [7 (mixture)] | 5580 | – | –
11 | 5.5 | 270 | – | CO[C@H]1C2=CC(C2)CC(C)S(=O)(=O)NC(=O)c2ccc3c(c2)N(C[C@@H]2CC[C@H]21)C[C@@]1(CCCc2cc(Cl)ccc21)CO3 (mixture of isomers) [11 (mixture)] | 967 | – | –
12 | 4.2 | – | 600 | CO[C@@H]1C2=CC(C2)CC(C)S(=O)(=O)NC(=O)c2ccc3c(c2)N(C[C@@H]2CC[C@H]21)C[C@@]1(CCCc2cc(Cl)ccc21)CO3 (single isomer, unassigned) [7 (Isomer 1)] | – | 1120 | –
13 | 4.2 | – | 1900 | CO[C@@H]1C2=CC(C2)CC(C)S(=O)(=O)NC(=O)c2ccc3c(c2)N(C[C@@H]2CC[C@H]21)C[C@@]1(CCCc2cc(Cl)ccc21)CO3 (single isomer, unassigned) [7 (Isomer 2)] | – | 2960 | –
14 | 6.5 | – | 86 | CO[C@H]1C2=CC(C2)CC(C)S(=O)(=O)NC(=O)c2ccc3c(c2)N(C[C@@H]2CC[C@H]21)C[C@@]1(CCCc2cc(Cl)ccc21)CO3 (single isomer, unassigned) [11 (Isomer 1)] | – | 87 | –
15 | 6 | – | 2240 | CO[C@H]1C2=CC(C2)CC(C)S(=O)(=O)NC(=O)c2ccc3c(c2)N(C[C@@H]2CC[C@H]21)C[C@@]1(CCCc2cc(Cl)ccc21)CO3 (single isomer, unassigned) [11 (Isomer 2)] | – | 3860 | –
16 | 4.8 | – | > 10000 | CO[C@H]1C2=CC(C2)[C@@H](C)[C@H](C)S(=O)(=O)NC(=O)c2ccc3c(c2)N(C[C@@H]2CC[C@H]21)C[C@@]1(CCCc2cc(Cl)ccc21)CO3 (single isomer, unassigned) [12 (Isomer 1)] | 17200 | – | –
17 | 15 | – | 4600 | CO[C@H]1C2=CC(C2)[C@@H](C)[C@H](C)S(=O)(=O)NC(=O)c2ccc3c(c2)N(C[C@@H]2CC[C@H]21)C[C@@]1(CCCc2cc(Cl)ccc21)CO3 (single isomer, unassigned) [12 (Isomer 2)] | – | 12300 | –
18 | 3.3 | – | 2260 | CO[C@H]1C2=CC(C2)[C@H](C)N(C)S(=O)(=O)NC(=O)c2ccc3c(c2)N(C[C@@H]2CC[C@H]21)C[C@@]1(CCCc2cc(Cl)ccc21)CO3 (single isomer, unassigned) [26 (isomer 2)] | – | 2240 | –
19 | 13 | – | 1600 | CO[C@@H]1C2=CC(C2)[C@H](C)N(C)S(=O)(=O)NC(=O)c2ccc3c(c2)N(C[C@@H]2CC[C@H]21)C[C@@]1(CCCc2cc(Cl)ccc21)CO3 (single isomer, unassigned) [27 (isomer 1)] | – | 1440 | –
20 | 3.4 | – | 5000 | CO[C@@H]1C2=CC(C2)[C@H](C)N(C)S(=O)(=O)NC(=O)c2ccc3c(c2)N(C[C@@H]2CC[C@H]21)C[C@@]1(CCCc2cc(Cl)ccc21)CO3 (single isomer, unassigned) [27 (isomer 2)] | – | 3610 | –

From patent US11498928B2, “Macrocyclic spiroethers as Mcl-1 inhibitors” (ASCENTAGE PHARMA (SUZHOU) CO., LTD., priority 2019, dated 2022)
